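Following 48 hours of exposure in 96-well plates, responses at five concentrations were used to interpolate endpoints linearly. GI50 marks 50% less growth.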 Calls of active or inactive are those of the source. Rule as the data show it: active = GI50 up to about 1.1 µM and inactive = higher. Where only a bound is given, the exact number is not on record here.

Some test systems named below: HT-29; HOP-92; OVCAR-5; NCI-H460; SK-MEL-5; OVCAR-8; OVCAR-4; NCI/ADR-RES; MOLT-4; SK-MEL-2; EKVX; K562; SF-539; T47D; SF-295; HOP-62; SN12C; M14; SR.
What all share (test): NCI anticancer screen, dose series, 48 h

As to `CCOC(=O)c1nc2ccccc2nc1Oc1ccc(C(=O)OC)cc1`, the GI50 with HT-29, with HOP-92, with OVCAR-5, in the test on NCI-H460, in the test with SK-MEL-5 and in the test on OVCAR-8 was > 100 µM (inactive) each time. In addition, the GI50 is > 100 µM (inactive) with OVCAR-4; > 100 µM (inactive) in the test on NCI/ADR-RES; 2.87 µM (inactive) with MOLT-4; > 100 µM (inactive) in the test on SK-MEL-2; > 100 µM (inactive) with EKVX; > 100 µM (inactive) in the test with K562. The GI50 with SF-539, in the test on T47D, in the test on SF-295, with HOP-62, with SN12C and in the test on M14 was > 100 µM (inactive) in each case.

`CN(C)c1nncc2[nH]cnc12`: the GI50 in the test on HT-29, with OVCAR-5, with NCI-H460, with SK-MEL-5, in the test on OVCAR-8 and in the test on NCI/ADR-RES was > 100 µM (inactive) in each case. For the same compound, the GI50 in the test on MOLT-4, in the test on SK-MEL-2, in the test on EKVX, with SR, with K562 and in the test with SF-539 was > 100 µM (inactive) throughout. For the same compound, the GI50 in the test with T47D, in the test with SF-295, in the test on HOP-62, in the test on SN12C and with M14 was > 100 µM (inactive) in each case.

Take `O=C1CCN/C(=N\C(=O)C(F)(F)F)N1CCc1c[nH]c2ccccc12`: the GI50 in the test on HT-29, with HOP-92, in the test on OVCAR-5, with NCI-H460, with SK-MEL-5 and with OVCAR-8 was > 100 µM (inactive) in each case. For the same compound, the GI50 in the test with OVCAR-4, with NCI/ADR-RES, with MOLT-4, in the test on SK-MEL-2, with EKVX and in the test with K562 was > 100 µM (inactive) each time. The GI50 with SF-539, with T47D, in the test with SF-295, in the test with HOP-62, in the test with SN12C and with M14 was > 100 µM (inactive) each time.

Consider `C[N+]12C=CC=C1C(N1CCCC1)c1scc(-c3ccc(F)cc3)c12` (stereo not drawn), for which the GI50 is 18.3 µM (inactive) in the test with HT-29; 32.4 µM (inactive) in the test on OVCAR-5; 13.5 µM (inactive) with SK-MEL-5; 40.4 µM (inactive) in the test with OVCAR-8; > 100 µM (inactive) in the test with NCI/ADR-RES; 21.6 µM (inactive) in the test with MOLT-4. The GI50 with SK-MEL-2 is 10.5 µM (inactive); in the test on EKVX, 92.3 µM (inactive); with SR it was 11 µM (inactive); in the test with K562, 5.74 µM (inactive); in the test on T47D, 5.93 µM (inactive); in the test with SF-295, 58.7 µM (inactive). The values for the GI50 with HOP-62, in the test with SN12C and in the test with M14 were 63.7 µM (inactive), 11.1 µM (inactive) and 69.8 µM (inactive), respectively.

For `O=C(Oc1c(Cl)cc(C2(c3cc(Cl)c(OC(=O)c4ccccc4)c(Cl)c3)CCCCC2)cc1Cl)c1ccccc1`, the GI50 with HT-29 was 14.6 µM (inactive); in the test with HOP-92, 8.45 µM (inactive); with OVCAR-5, 14 µM (inactive); in the test on NCI-H460 it was 6.65 µM (inactive); in the test on SK-MEL-5, 10.6 µM (inactive); in the test with OVCAR-8, 15.9 µM (inactive). Further, the GI50 is 10.9 µM (inactive) in the test with OVCAR-4; 11.6 µM (inactive) in the test on NCI/ADR-RES; 5 µM (inactive) with MOLT-4; 11.2 µM (inactive) in the test with SK-MEL-2; 11.1 µM (inactive) in the test with EKVX; 7.96 µM (inactive) with K562. The GI50 in the test on SF-539 is 14.3 µM (inactive); in the test on T47D, 11 µM (inactive); in the test on SF-295 it was 13.4 µM (inactive); with HOP-62, 12.4 µM (inactive); with SN12C, 13.2 µM (inactive); in the test on M14, 14.5 µM (inactive).

Consider `CC1=C(C#N)C2C(=C(N)Oc3ccccc32)C(N)=N1` (stereo not drawn), for which the GI50 was 27.2 µM (inactive) in the test with HT-29; 24.8 µM (inactive) in the test on OVCAR-5; 23.7 µM (inactive) in the test with SK-MEL-5; 25.1 µM (inactive) with OVCAR-8; 32.8 µM (inactive) with OVCAR-4; 19.3 µM (inactive) in the test with NCI/ADR-RES. For the same compound, the GI50 with MOLT-4 is 75 µM (inactive); in the test with SK-MEL-2 it was 20.1 µM (inactive); with EKVX it was 25.4 µM (inactive); in the test on SR it was 40.8 µM (inactive); in the test on K562 it was 29.7 µM (inactive); in the test on SF-539, 30.1 µM (inactive). Besides, the GI50 in the test with T47D was 20.1 µM (inactive); in the test with SF-295 it was 26.9 µM (inactive); in the test with HOP-62, 35.6 µM (inactive); in the test on SN12C, 23.7 µM (inactive); in the test with M14 it was 20.7 µM (inactive).

On to `COc1cc(C2c3cc4c(cc3[C@@H](Nc3ccccc3)C3COC[C@H]23)OCO4)cc(OC)c1O` (stereo partly drawn), for which the GI50 with HT-29 is 3.06 µM (inactive); with OVCAR-5, 2.36 µM (inactive); in the test with NCI-H460 it was 0.148 µM (active); in the test on SK-MEL-5 it was 2.3 µM (inactive); in the test with OVCAR-8, 2.82 µM (inactive); with OVCAR-4, 16.9 µM (inactive). Also, the GI50 in the test on NCI/ADR-RES was 10.9 µM (inactive); in the test with MOLT-4, 0.0665 µM (active); in the test with EKVX, 15.4 µM (inactive); in the test on SR, 0.465 µM (active); in the test on K562, 1.8 µM (inactive); with SF-539, 1.26 µM (inactive). Also, the GI50 with T47D was 1.19 µM (inactive); in the test on SF-295, 0.485 µM (active); in the test with HOP-62, 1.48 µM (inactive); in the test with SN12C, 1.9 µM (inactive); in the test with M14, 2.59 µM (inactive).

Consider `O=C(Nc1ncc([N+](=O)[O-])s1)c1ccccc1O` [TIZOXANIDE], for which the GI50 with HT-29 was 14.5 µM (inactive); in the test with HOP-92, 2.74 µM (inactive); with OVCAR-5 it was 32.9 µM (inactive); in the test on NCI-H460 it was 18 µM (inactive); with SK-MEL-5 it was 15.2 µM (inactive); in the test with OVCAR-8, 17.9 µM (inactive). Besides, the GI50 is 38.3 µM (inactive) with OVCAR-4; 13.6 µM (inactive) in the test with NCI/ADR-RES; 18.5 µM (inactive) in the test on MOLT-4; 12.5 µM (inactive) in the test with SK-MEL-2; 16.5 µM (inactive) in the test with EKVX; 28.2 µM (inactive) with K562. In addition, the GI50 is 45 µM (inactive) with SF-539; 28.3 µM (inactive) with T47D; 7.89 µM (inactive) in the test on SF-295; 20 µM (inactive) in the test on HOP-62; 17.5 µM (inactive) with SN12C; 20 µM (inactive) with M14.

The values are drawn from ChEMBL document CHEMBL1201862, “PubChem BioAssay data set” (2004).
